Values after ≈ are worked out from the molar mass of the structure shown. Active and inactive are the calls of the source. No cut-off for these calls is given here.

The test system of data set [1] is A549/TR. The experiment in a line: Antitumor activity against human A549/T cell xenografted in BALB/c mouse assessed as reduction in tumor growth at 15 mg/kg, ip administered every 2 days. It counts as functional, organism-based. Conditions: time 2.0 day.
Data set [2] is described as follows: Aqueous solubility of the compound […] at pH 7.4 by HPLC analysis. It counts as physicochemical.
The nature of data set [3]: Metabolic stability in human liver microsome assessed as intrinsic clearance measured upto 50 mins by LC-MS/MS analysis. Type of data set: ADME. To be noted: liver microsomes, read-out: CLH. For orientation: Microsomes from liver hold many membrane-bound enzymes, among them those of drug oxidation.
A short description of data set [4]: Inhibition of pig brain tubulin polymerization measured upto 20 mins by absorbance based assay. Set-up: species or system Sus scrofa.
The nature of data set [5]: Metabolic stability in human liver microsome assessed as half life measured upto 50 mins by LC-MS/MS analysis. It counts as ADME. Conditions: liver microsomes.
Data set [6] in a line: Toxicity in BALB/c mouse implanted with human A549/T cell assessed as change in body weight at 15 mg/kg, ip administered every 2 days. It counts as organism-based. Conditions: in vivo, 48 h, time 2 day.
In data set [7] the test system is A549/TR. The data set can be described thus: Antiproliferative activity against human A549/T cell assessed as cell growth inhibition incubated for 48 hrs by MTT assay. Type of data set: functional, cell-based. (Tetrazolium assays rely on reduction of a dye to a coloured formazan, in cell work by metabolically active cells.)
Data set [8] can be described thus: Resistance index, ratio of IC50 for human A549/T cells to IC50 for human A549 cells. It counts as functional.
Data set [9] deals with A549. The data set can be described thus: Antiproliferative activity against human A549 cells assessed as cell growth inhibition incubated for 48 hrs by MTT assay. Conditions: A549, 48 h.
Data set [10] deals with A549/TR. The data set can be described thus: Inhibition of colony formation in human A549/T cell at 1 uM incubated for 48 hrs by crystal violet staining based analysis. It counts as functional.
For data set [11], the system named is A549/TR. The data set can be described thus: Antiproliferative activity against human A549/T cell assessed as cell growth inhibition in presence of verapamil incubated for 48 hrs by MTT assay. It counts as functional, cell-based.
Data set [12] has as its target Tubulin (Homo sapiens) (UniProt P68371+Q9H4B7+P0DPH7+P68366+Q13509+Q71U36+P04350+Q3ZCM7+P07437+P68363+Q9BQE3+Q6PEY2+Q13885+Q9BVA1+Q9BUF5). The data set can be described thus: Disruption of microtubule network in human A549/T cell assessed as disorganization of tubulin cytoskeleton at 1000 nM incubated for 24 hrs by immunofluorescence staining based confocal microscopy analysis.

In data set [13] the test system is A549. The data set can be described thus: Inhibition of colony formation in human A549 cells at 1 uM incubated for 48 hrs by crystal violet staining based analysis. It counts as functional, cell-based.
The test system of data set [14] is A549/TR. The data set can be described thus: Antiproliferative activity against human A549/T cell assessed as cell growth inhibition at 80 nM incubated for 48 hrs by MTT assay. It counts as functional, cell-based.

Consider `COc1ccc(/C=C\c2cc(OC)c(OC)c(OC)c2)cc1O` [COMBRETASTATIN A4], for which, in data set [1], the outcome was Active. Besides, the concentration in solution in data set [2] (solubility) came to 1 µg/mL (≈ 3.16 µM). Further, the CLint scaled in data set [3] stood at 90 mL/min/kg. The concentration for half-maximal inhibition (IC50) stood at 1400 nM in data set [4] and 13 nM in data set [7]. Moreover, the half-life in data set [5] amounted to 14 min. Also, in [6], the Activity result is listed as “Non-toxic”.
As for `CC(=O)O[C@H]1C(=O)[C@@]2(C)[C@H]([C@H](OC(=O)c3ccccc3)[C@]3(O)C[C@H](OC(=O)[C@H](O)[C@@H](NC(=O)c4ccccc4)c4ccccc4)C(C)=C1C3(C)C)[C@]1(OC(C)=O)CO[C@@H]1C[C@@H]2O` [PACLITAXEL], the result in data set [1] was inactive. Besides, the “Ratio IC50” value in data set [8] was above 25000. The IC50 in [9] is 2 nM; in data set [7], above 50000 nM. The inhibition entry in [10] is “inactive”. Further, the result in [11] and in data set [12] was Active. Moreover, the Activity result in data set [6] is reported as “Non-toxic”. Moreover, the inhibition entry in data set [13] was “Active”.
For the molecule `COc1ccc(CCN(C)CCCC(C#N)(c2ccc(OC)c(OC)c2)C(C)C)cc1OC` (stereo not drawn), the result in [14] was Active. Further, in data set [7], the result was inactive.

In general, solubility refers to how much of the substance goes into solution per volume. A low value points to little dissolved substance. For orientation: IC50 means the point on the concentration scale where inhibition reaches its midpoint. As usually defined, the half-life is the time in which the quantity being followed falls by half.

The values are drawn from ChEMBL document CHEMBL6074685, “Design, synthesis and biological evaluation of novel diaryl-substituted fused nitrogen heterocycles as tubulin polymerization inhibitors to overcome multidrug resistance in vitro and in vivo” (Eur J Med Chem, 2025).
